From ChEMBL document CHEMBL1201862, “PubChem BioAssay data set” (2004) come the findings set out here.

Activity calls are given as the source filed them.

The target of assay [1] is T1, SUMO-activating enzyme (Homo sapiens, UniProt Q9UBT2). In words: SUMOylation inhibitor hit validation, confirmation, SUMOylation inhibitor project, biochemical, AlphaScreen (AID 2018). Format: functional. A general note: Alpha assays give light when donor and acceptor beads are brought close together.
The target of assay [2] is T2, Induced myeloid leukemia cell differentiation protein Mcl-1 (Homo sapiens, UniProt Q07820). In kind it is functional.
T2 sequence (Q07820 whole entry): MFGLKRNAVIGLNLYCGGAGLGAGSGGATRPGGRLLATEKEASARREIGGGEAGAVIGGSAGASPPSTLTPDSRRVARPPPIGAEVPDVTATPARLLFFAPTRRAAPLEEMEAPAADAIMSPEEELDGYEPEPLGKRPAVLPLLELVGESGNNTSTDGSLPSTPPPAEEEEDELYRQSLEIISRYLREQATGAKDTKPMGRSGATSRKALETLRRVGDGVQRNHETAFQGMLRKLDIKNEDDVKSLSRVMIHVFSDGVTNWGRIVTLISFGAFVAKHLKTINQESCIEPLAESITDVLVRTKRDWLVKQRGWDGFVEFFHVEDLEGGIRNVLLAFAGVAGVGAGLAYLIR
The target of assay [3] is DNA (cytosine-5)-methyltransferase 1 (Homo sapiens, UniProt P26358). As to the kind of experiment: DNMT1 methyltransferase inhibitors, confirmation, biochemical, fluorescent molecular beacon (AID 602386). In kind it is functional.
Assay [4] concerns the target T3, Leucine aminopeptidase (Plasmodium falciparum 3D7, UniProt Q8IL11).
T3 sequence (Q8IL11 whole entry): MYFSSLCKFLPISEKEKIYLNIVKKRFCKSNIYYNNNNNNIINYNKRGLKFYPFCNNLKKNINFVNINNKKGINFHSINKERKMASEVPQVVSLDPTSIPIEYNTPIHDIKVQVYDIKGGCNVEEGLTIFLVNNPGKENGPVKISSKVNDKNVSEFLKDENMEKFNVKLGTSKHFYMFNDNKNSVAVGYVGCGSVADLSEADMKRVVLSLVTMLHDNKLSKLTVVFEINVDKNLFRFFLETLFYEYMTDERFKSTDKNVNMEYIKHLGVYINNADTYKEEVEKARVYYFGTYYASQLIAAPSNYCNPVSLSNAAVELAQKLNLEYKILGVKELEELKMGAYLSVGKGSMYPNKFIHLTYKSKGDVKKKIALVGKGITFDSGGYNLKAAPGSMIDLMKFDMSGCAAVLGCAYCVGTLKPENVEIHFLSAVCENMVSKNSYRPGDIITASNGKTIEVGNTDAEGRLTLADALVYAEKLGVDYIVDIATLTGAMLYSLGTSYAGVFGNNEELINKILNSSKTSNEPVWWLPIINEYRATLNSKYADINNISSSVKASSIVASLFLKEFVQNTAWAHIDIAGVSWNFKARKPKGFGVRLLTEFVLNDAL
As to the kind of experiment: P. falciparum M17LAP inhibitors, primary screen, biochemical, fluorogenic H-Leu-NHMec substrate, 1536-well (AID 1619). Format: functional.

Assay [5] deals with Genome polyprotein (dengue virus type 2, UniProt P29990). As to the kind of experiment: Dengue-2 NS5 methyltransferase inhibitors, primary screen, biochemical, confirmation dose response (AID 588689). Format: functional.
Sequence of Genome polyprotein (P29990 2492-3391 limits assumed): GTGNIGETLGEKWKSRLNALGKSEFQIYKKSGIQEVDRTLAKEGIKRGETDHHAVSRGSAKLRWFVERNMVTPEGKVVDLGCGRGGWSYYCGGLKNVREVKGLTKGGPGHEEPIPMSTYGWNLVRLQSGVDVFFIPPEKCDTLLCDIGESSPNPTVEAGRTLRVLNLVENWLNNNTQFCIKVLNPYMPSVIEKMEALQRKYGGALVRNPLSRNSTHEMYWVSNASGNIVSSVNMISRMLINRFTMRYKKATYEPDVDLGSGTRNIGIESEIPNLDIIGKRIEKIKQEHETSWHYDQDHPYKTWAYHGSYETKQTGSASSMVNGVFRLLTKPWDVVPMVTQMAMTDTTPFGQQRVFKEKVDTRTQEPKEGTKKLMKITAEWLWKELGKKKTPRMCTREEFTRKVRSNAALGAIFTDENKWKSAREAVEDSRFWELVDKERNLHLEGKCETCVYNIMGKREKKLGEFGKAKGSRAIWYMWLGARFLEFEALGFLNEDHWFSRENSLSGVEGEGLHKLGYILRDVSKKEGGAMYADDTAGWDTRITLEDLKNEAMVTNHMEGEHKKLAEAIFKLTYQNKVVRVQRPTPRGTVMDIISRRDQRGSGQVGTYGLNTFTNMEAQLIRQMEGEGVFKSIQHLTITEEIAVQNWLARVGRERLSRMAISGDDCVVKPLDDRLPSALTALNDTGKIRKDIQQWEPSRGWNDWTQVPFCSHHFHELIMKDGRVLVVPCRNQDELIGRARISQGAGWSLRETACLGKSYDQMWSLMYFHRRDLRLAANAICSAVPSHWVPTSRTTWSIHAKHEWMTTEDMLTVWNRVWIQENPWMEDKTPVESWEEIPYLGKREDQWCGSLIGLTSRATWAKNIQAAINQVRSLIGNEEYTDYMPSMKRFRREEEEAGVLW
In assay [6] the target is T4, RNA-binding protein pos-1 (Caenorhabditis elegans, UniProt G5EF15).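 Also: purified POS-1 fused to maltose binding protein made in E. coli; potency of compounds blocking POS-1 binding to fluorescent RNA.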
T4 sequence (G5EF15 whole entry): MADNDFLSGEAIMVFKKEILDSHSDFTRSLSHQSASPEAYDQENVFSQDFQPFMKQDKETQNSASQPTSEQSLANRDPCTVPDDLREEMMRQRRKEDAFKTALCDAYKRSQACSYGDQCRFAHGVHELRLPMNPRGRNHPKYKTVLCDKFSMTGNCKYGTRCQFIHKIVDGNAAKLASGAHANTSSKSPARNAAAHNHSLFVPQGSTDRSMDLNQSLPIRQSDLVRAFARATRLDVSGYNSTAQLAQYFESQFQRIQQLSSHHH
In words: inhibitors of POS-1/mex-3 RNA binding, dose response, biochemical, fluorescence polarization (AID 1964). (In general: Fluorescence polarisation rises when a labelled molecule tumbles more slowly, as on binding a larger partner.)

Assay [7] deals with Bcl-2-like protein 1 (Homo sapiens, UniProt Q07817). As to the kind of experiment: BCL-XL inhibitors, dose response, selectivity assay for MCL1 inhibitor project, biochemical, fluorescence polarization, 1536-well (AID 2218).
Sequence of Bcl-2-like protein 1 (Q07817 whole entry): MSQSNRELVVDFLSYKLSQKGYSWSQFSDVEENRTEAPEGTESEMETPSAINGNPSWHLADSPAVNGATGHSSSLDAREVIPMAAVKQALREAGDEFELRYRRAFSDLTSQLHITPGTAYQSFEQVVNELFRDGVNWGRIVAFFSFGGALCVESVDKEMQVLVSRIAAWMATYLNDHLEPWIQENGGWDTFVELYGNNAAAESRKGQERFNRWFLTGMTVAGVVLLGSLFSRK
Assay [8] deals with T1, SUMO-activating enzyme. As to the kind of experiment: inhibitors of in vitro SUMOylation cascade, primary screen, biochemical, HTRF, uHTS (AID 2006). In kind it is protein-complex assay.
Assay [9] addresses Large T antigen (Simian virus 40, UniProt P03070). Format: functional, Betapolyomavirus macacae.
Assay [10] deals with Nonstructural protein 1 (Influenza A virus, UniProt Q194T2). Format: functional, Influenza A virus (A/California/07/2009(H1N1)).
Sequence of Nonstructural protein 1 (Q194T2 whole entry): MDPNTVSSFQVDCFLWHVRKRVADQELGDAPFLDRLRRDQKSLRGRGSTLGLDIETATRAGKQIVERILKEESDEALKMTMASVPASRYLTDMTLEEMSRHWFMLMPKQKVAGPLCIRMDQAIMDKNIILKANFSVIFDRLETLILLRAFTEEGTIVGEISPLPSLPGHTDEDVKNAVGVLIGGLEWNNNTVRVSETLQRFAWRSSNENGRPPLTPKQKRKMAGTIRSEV
The target of assay [11] is T5, Cysteine protease ATG4B (Homo sapiens, UniProt Q9Y4P1).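 Also: Fluorescence-based dose-response confirmation assay measuring inhibition of ATG4B activity.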
T5 sequence (Q9Y4P1 whole entry): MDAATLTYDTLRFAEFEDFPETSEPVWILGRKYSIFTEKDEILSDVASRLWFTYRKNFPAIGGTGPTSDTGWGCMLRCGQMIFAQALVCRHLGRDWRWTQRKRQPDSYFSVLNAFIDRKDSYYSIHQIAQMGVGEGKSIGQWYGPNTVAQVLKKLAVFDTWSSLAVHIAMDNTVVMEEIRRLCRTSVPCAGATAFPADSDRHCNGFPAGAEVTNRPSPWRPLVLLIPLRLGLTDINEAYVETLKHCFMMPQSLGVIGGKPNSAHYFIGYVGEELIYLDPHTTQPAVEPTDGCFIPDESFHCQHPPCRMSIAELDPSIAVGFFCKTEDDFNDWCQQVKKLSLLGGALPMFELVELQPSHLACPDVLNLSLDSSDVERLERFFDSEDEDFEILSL
Format: functional.

In assay [12] the target is Protein disulfide-isomerase (Homo sapiens, UniProt P07237). In words: PDI inhibitors, insulin aggregation turbidity, dose response, biochemical, absorbance, cherry-picked samples (AID 602350). In kind it is functional.
Sequence of Protein disulfide-isomerase (P07237 whole entry): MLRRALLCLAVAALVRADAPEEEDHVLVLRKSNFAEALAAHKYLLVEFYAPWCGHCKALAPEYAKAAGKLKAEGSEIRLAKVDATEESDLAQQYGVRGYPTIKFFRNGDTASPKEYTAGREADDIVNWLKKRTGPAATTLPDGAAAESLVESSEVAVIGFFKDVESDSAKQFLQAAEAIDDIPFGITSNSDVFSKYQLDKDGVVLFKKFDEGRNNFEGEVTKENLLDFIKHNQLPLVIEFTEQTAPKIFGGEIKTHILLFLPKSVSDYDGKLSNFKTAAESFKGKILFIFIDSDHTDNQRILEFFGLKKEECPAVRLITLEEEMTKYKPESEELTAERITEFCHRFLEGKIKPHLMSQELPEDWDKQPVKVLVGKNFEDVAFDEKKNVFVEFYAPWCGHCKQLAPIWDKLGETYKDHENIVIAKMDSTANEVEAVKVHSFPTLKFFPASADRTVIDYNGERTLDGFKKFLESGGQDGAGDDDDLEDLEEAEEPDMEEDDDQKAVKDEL
Assay [13] concerns the target T6, Zinc finger protein mex-5 (Caenorhabditis elegans, UniProt Q9XUB2).
T6 sequence (Q9XUB2 whole entry): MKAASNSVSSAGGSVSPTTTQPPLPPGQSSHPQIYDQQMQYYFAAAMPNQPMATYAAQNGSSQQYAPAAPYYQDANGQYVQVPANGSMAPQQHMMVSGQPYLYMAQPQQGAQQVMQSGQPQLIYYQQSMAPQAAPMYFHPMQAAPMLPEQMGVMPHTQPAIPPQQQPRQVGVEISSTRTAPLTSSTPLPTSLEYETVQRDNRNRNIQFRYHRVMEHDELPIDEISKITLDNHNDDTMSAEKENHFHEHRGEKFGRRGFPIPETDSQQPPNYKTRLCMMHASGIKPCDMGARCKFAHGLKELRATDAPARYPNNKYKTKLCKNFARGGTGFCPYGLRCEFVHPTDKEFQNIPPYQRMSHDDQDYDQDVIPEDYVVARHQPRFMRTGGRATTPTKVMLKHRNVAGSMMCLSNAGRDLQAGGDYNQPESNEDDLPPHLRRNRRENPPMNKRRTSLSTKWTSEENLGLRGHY
In words: MEX-5/TCR-2 RNA interaction inhibitors, dose response, biochemical, C. elegans, fluorescence polarization (AID 1960).

Assay [14] addresses Phospholipase A2 (Homo sapiens, UniProt P04054). Format: functional.
Assay [15] has as its target T2, Induced myeloid leukemia cell differentiation protein Mcl-1. In words: MCL1-BIM BH3 interaction inhibitors, dose response, biochemical, fluorescence polarization, BIM-BH3 peptide, 1536-well (AID 2217).
In assay [16] the test system is H9c2. As to the kind of experiment: cells. Format: functional, cell-based. To be noted: Rattus norvegicus, H9c2, Myocardium.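 Also: confirmatory concentration-response retest of ultra-high-throughput screening hits for modulation of myocardial damage; cell death induced by hydrogen peroxide oxidative stress; compound pretreatment for 60 min then peroxide exposure for 2 h; potency is for protecting the cells against peroxide damage rather than for killing them.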
Assay [17] has as its target Neuropeptide Y receptor type 1 (Homo sapiens, UniProt P25929). Format: functional.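 Also: HEK293 cells with a CNG channel challenged with NPY then isoproterenol; potency as antagonist that reverses NPY suppression of cAMP signal.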
The nature of assay [18]: growth induction of Burl-1 ts yeast mutant, dose response, counter-screen for SUMOylation pathway inhibitor project, whole organism, S. cerevisiae, luminescence (AID 463199). In kind it is functional. A general note: Counterscreens check selectivity or assay interference.
Assay [19] deals with Neuropeptide Y receptor type 2 (Homo sapiens, UniProt P49146). Format: functional, cell-based.
Sequence of Neuropeptide Y receptor type 2 (P49146 whole entry): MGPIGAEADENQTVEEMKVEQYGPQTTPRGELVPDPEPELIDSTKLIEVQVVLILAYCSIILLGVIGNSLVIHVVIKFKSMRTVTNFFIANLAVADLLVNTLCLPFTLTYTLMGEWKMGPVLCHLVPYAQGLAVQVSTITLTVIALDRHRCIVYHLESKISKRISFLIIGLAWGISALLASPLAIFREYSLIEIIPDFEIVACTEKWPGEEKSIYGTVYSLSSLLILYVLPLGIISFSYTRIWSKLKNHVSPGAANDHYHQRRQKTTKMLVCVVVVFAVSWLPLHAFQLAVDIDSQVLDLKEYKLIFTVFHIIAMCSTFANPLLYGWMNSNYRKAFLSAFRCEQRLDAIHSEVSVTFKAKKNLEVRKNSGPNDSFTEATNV
A short description of assay [20]: inhibitors of Bluetongue virus cytopathic effect, confirmation, arbovirus, BSR cells (AID 1250).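 Also: protection from viral cytopathic effect measured as cell viability by ATP luminescence.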 In kind it is functional.
Assay [21] has as its target T7, Calpain-2 catalytic subunit (Sus scrofa, UniProt P43367).
T7 sequence (P43367 whole entry): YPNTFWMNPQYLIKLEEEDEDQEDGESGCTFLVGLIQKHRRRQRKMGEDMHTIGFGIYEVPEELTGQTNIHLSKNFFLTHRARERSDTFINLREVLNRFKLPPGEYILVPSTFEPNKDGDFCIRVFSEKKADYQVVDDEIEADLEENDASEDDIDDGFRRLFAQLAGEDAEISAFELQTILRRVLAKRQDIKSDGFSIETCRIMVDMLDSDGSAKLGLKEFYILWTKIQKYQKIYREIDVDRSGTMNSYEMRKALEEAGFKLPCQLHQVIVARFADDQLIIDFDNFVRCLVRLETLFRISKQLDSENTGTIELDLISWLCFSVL
As to the kind of experiment: pig calpain II inhibitor potency, dose response, biochemical, fluorogenic peptide substrate (AID 1420). Format: functional.

The target in assay [22] is T8, Estrogen receptor (Homo sapiens, UniProt P03372).
T8 sequence (P03372 whole entry): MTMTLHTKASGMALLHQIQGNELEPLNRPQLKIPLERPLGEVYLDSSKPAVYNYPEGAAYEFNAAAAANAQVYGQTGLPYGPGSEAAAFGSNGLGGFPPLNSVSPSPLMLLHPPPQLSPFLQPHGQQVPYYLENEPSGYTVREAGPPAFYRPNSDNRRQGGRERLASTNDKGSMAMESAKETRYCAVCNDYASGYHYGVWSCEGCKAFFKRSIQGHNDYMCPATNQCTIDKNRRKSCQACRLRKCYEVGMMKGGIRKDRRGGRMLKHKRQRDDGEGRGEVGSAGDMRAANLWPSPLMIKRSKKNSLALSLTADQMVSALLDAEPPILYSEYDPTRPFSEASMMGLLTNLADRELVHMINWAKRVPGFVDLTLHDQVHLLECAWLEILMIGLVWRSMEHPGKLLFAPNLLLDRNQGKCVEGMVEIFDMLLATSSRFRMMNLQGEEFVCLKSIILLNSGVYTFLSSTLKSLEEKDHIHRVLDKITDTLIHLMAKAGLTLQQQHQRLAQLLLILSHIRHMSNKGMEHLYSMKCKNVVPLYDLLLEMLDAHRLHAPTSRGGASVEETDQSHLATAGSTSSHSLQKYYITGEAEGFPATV
As to the kind of experiment: potentiators of ERα–SRC-1 coactivator binding, dose response, biochemical, TR-FRET, ERα LBD (AID 737).

T1 sequence (Q9UBE0 whole entry): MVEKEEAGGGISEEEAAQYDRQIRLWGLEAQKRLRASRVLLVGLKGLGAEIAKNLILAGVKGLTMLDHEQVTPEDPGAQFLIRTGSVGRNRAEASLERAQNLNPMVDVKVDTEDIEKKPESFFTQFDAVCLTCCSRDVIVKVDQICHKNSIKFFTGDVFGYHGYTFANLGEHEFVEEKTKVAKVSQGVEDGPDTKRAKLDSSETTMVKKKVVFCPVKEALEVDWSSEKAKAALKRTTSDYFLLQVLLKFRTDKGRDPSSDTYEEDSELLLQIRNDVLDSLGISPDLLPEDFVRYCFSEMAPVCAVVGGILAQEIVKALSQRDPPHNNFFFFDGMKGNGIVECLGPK
T1 sequence (Q9UBT2 whole entry): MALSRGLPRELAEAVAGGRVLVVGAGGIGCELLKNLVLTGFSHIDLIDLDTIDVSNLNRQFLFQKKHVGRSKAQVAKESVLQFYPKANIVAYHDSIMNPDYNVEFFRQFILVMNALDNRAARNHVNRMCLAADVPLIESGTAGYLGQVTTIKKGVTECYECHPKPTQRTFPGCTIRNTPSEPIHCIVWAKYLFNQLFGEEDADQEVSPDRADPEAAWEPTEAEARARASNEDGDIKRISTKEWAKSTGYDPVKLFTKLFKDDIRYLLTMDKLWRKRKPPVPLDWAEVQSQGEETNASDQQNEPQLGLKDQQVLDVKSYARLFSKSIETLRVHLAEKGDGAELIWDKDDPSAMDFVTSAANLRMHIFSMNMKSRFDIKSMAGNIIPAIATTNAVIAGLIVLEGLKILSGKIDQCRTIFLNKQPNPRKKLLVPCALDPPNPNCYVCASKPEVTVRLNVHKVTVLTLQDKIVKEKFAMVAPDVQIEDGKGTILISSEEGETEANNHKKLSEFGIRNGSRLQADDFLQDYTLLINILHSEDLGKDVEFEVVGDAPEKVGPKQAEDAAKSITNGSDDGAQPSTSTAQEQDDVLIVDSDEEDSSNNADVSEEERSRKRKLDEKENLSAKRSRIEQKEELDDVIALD
Sequence of Large T antigen (P03070 whole entry): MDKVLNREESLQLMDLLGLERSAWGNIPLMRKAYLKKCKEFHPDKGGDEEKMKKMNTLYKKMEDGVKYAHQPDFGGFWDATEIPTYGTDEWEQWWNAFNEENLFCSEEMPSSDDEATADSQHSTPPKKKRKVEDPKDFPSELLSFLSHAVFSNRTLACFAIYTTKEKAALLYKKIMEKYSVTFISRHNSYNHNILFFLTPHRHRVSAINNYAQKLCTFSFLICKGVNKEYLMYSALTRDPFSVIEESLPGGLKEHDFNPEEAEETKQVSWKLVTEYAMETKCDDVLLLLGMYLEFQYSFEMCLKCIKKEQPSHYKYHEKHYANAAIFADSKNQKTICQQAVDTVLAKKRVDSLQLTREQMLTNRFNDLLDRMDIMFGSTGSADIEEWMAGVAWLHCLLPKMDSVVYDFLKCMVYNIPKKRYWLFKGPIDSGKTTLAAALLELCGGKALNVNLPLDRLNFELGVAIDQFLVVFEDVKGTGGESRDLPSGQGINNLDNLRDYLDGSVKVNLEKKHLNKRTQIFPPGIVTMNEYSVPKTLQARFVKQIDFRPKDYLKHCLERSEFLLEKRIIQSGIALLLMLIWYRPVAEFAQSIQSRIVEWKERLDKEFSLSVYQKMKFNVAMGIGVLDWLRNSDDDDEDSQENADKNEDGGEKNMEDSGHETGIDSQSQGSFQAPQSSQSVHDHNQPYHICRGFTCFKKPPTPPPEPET
Sequence of Phospholipase A2 (P04054 whole entry): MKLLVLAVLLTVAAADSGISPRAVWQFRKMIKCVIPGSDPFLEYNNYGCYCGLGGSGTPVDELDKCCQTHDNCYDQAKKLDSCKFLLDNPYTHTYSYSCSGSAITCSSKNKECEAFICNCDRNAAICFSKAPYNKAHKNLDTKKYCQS
Sequence of Neuropeptide Y receptor type 1 (P25929 whole entry): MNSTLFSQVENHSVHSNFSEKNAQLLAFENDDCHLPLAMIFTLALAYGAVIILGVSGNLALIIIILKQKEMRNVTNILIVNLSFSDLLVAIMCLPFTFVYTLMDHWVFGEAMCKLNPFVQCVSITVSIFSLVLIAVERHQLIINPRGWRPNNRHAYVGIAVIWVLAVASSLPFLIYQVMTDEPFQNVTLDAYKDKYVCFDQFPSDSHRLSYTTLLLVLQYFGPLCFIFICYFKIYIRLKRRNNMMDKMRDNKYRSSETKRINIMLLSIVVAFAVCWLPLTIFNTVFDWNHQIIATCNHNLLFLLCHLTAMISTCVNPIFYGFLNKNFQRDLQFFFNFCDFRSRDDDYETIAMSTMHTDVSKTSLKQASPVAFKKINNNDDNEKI

Take `COc1cccc(NS(=O)(=O)c2ccc3c(c2)C2C=CCC2C(c2ccc(C(=O)O)cc2)N3)c1` (configuration not stated): the half-inhibitory concentration (IC50) in assay [1] is 2.15 µM (active); in assay [2], 2.32 µM (active); in [3], 7.94 µM (active); in assay [4], 15.8 µM (active); in [5], 67 µM (active); in [7], 64.9 µM (not active). For the same molecule, the half-inhibitory concentration (IC50) in assay [8] is 9.5 µM (active); in assay [9], > 100 µM (active); in [10], > 100 µM (active); in [11], 10.7 µM (active); in [14] it was 10.6 µM (active); in assay [15], 18.9 µM (not active). In addition, the 50% effective concentration (EC50) in assay [6] was 18 µM (inconclusive); in assay [13], 12.5 µM (active). Moreover, the AC50 in [12] was 15.8 µM (active).
As to `O=C(Nc1cccc(/N=C/c2cc(Br)cc(Br)c2O)c1)c1ccco1`, the 50% inhibitory concentration (IC50) in assay [16] is 10.8 µM (active); in [17] it was > 35 µM (not active); in assay [19], > 35 µM (not active). Also, the AC50 in [18] is 57.9 µM (active).
Turning to `COc1ccc(C(=O)NCC(C)(C)SCc2c(C)cc(C)cc2C)cc1`, the results for the IC50 in [20] and in assay [21] were 24.1 µM (active) and > 50 µM (not active), respectively.
For the molecule `Cc1cc(C(=O)CSc2nnc(-c3ccccc3F)o2)c(C)n1Cc1cccs1`, the EC50 in assay [22] was 6.97 µM (active).

In general, IC50 refers to the midpoint of a concentration-inhibition curve. As usually defined, the EC50 is the concentration at which the effect is half-maximal. A word on the AC50: it is the concentration giving half of the maximal activity seen.
